In the supplement of paper PMC10307832:

Assays:
Experiment in all cases: relative viability (nuclei count vs DMSO), 5 days (fraction); higher = more cells survive
[1] = tested on: LK-2
Procedure, shortened: (§1)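 Lung cancer cell lines were seeded in 1536-well plates and dosed by pin tool the next day, with either a single drug or a fixed anchor-drug dose combined with five library-drug doses (not always all listed) spaced in √10 steps. Five days later, one step fixed the cells and stained their nuclei (final 0.05% Triton X-100, 1% formaldehyde, 1 ug/ml Hoechst), and nuclei were counted on 4× images. Relative viability is the nuclei count in treated wells divided by the count in vehicle wells, and each value is the median of duplicate plates.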

[2] = tested on: NCI-H1563
Procedure, shortened: as §1

[3] = tested on: EMC-BAC-2
Procedure, shortened: as §1

[4] = tested on: COR-L 105
Procedure, shortened: as §1

[5] = tested on: SK-MES-1
Procedure, shortened: as §1

[6] = tested on: NCI-H1734
Procedure, shortened: as §1

[7] = tested on: EKVX
Procedure, shortened: as §1

[8] = tested on: NCI-H23
Procedure, shortened: as §1

[9] = tested on: ChaGo-K-1
Procedure, shortened: as §1

[10] = tested on: H3255
Procedure, shortened: as §1

[11] = tested on: NCI-H441
Procedure, shortened: as §1

[12] = tested on: NCI-H520
Procedure, shortened: as §1

[13] = tested on: NCI-H596
Procedure, shortened: as §1

[14] = tested on: LOU-NH91
Procedure, shortened: as §1

[15] = tested on: NCI-H1666
Procedure, shortened: as §1

[16] = tested on: NCI-H1975
Procedure, shortened: as §1

[17] = tested on: PC-3 [JPC-3]
Procedure, shortened: as §1

[18] = tested on: NCI-H1755
Procedure, shortened: as §1

[19] = tested on: A-427
Procedure, shortened: as §1

[20] = tested on: NCI-H2170
Procedure, shortened: as §1

[21] = tested on: HCC-366
Procedure, shortened: as §1

**Q.** What does the source list for `CC(=O)O[C@@]12CO[C@@H]1C[C@H](O)[C@@]1(C)C(=O)[C@H](O)C3=C(C)[C@@H](OC(=O)[C@H](O)[C@@H](NC(=O)OC(C)(C)C)c4ccccc4)C[C@@](O)([C@@H](OC(=O)c4ccccc4)[C@H]21)C3(C)C` [Docetaxel] + C[C@@H](Oc1cc(-c2cnn(C3CCNCC3)c2)cnc1N)c1c(Cl)ccc(F)c1Cl [Crizotinib] (partner 1 µM)?
**A.** relative viability ([1]; first compound 0.0002 µM): 0.209; relative viability ([1]; first compound 0.000632 µM): 0.202; relative viability ([1]; first compound 0.002 µM): 0.228; relative viability ([1]; first compound 0.006325 µM): 0.213; relative viability ([1]; first compound 0.02 µM): 0.228; relative viability ([2]; first compound 0.0002 µM): 0.829; relative viability ([2]; first compound 0.000632 µM): 0.926; relative viability ([2]; first compound 0.002 µM): 0.928; relative viability ([2]; first compound 0.006325 µM): 0.799; relative viability ([2]; first compound 0.02 µM): 0.77; relative viability ([3]; first compound 0.0002 µM): 0.651; relative viability ([3]; first compound 0.000632 µM): 0.401; relative viability ([3]; first compound 0.002 µM): 0.404; relative viability ([3]; first compound 0.02 µM): 0.161; relative viability ([4]; first compound 0.0002 µM): 0.768; relative viability ([4]; first compound 0.000632 µM): 0.588; relative viability ([4]; first compound 0.002 µM): 0.361; relative viability ([4]; first compound 0.006325 µM): 0.285; relative viability ([4]; first compound 0.02 µM): 0.248; relative viability ([5]; first compound 0.0002 µM): 0.937; relative viability ([5]; first compound 0.000632 µM): 0.845; relative viability ([5]; first compound 0.002 µM): 0.287; relative viability ([5]; first compound 0.006325 µM): 0.221; relative viability ([5]; first compound 0.02 µM): 0.177; relative viability ([6]; first compound 0.0002 µM): 0.498; relative viability ([6]; first compound 0.000632 µM): 0.576; relative viability ([6]; first compound 0.002 µM): 0.362; relative viability ([6]; first compound 0.006325 µM): 0.298; relative viability ([6]; first compound 0.02 µM): 0.246; relative viability ([7]; first compound 0.0002 µM): 0.725; relative viability ([7]; first compound 0.000632 µM): 0.885; relative viability ([7]; first compound 0.002 µM): 0.432; relative viability ([7]; first compound 0.006325 µM): 0.25; relative viability ([7]; first compound 0.02 µM): 0.145; relative viability ([8]; first compound 0.0002 µM): 0.534; relative viability ([8]; first compound 0.000632 µM): 0.412; relative viability ([8]; first compound 0.002 µM): 0.271; relative viability ([8]; first compound 0.006325 µM): 0.189; relative viability ([8]; first compound 0.02 µM): 0.113; relative viability ([9]; first compound 0.0002 µM): 1.06; relative viability ([9]; first compound 0.000632 µM): 0.813; relative viability ([9]; first compound 0.002 µM): 0.457; relative viability ([9]; first compound 0.006325 µM): 0.339; relative viability ([9]; first compound 0.02 µM): 0.263; relative viability ([10]; first compound 0.0002 µM): 0.654; relative viability ([10]; first compound 0.000632 µM): 0.757; relative viability ([10]; first compound 0.002 µM): 0.376; relative viability ([10]; first compound 0.006325 µM): 0.267; relative viability ([10]; first compound 0.02 µM): 0.252; relative viability ([11]; first compound 0.0002 µM): 0.802; relative viability ([11]; first compound 0.000632 µM): 0.472; relative viability ([11]; first compound 0.002 µM): 0.29; relative viability ([11]; first compound 0.006325 µM): 0.193; relative viability ([11]; first compound 0.02 µM): 0.181; relative viability ([12]; first compound 0.0002 µM): 0.672; relative viability ([12]; first compound 0.000632 µM): 0.784; relative viability ([12]; first compound 0.002 µM): 0.196; relative viability ([12]; first compound 0.006325 µM): 0.155; relative viability ([12]; first compound 0.02 µM): 0.156; relative viability ([13]; first compound 0.0002 µM): 0.986; relative viability ([13]; first compound 0.000632 µM): 0.798; relative viability ([13]; first compound 0.002 µM): 1.01; relative viability ([13]; first compound 0.006325 µM): 0.475; relative viability ([13]; first compound 0.02 µM): 0.462; relative viability ([14]; first compound 0.0002 µM): 0.734; relative viability ([14]; first compound 0.000632 µM): 0.664; relative viability ([14]; first compound 0.002 µM): 0.508; relative viability ([14]; first compound 0.006325 µM): 0.373; relative viability ([14]; first compound 0.02 µM): 0.362; relative viability ([15]; first compound 0.0002 µM): 0.67; relative viability ([15]; first compound 0.000632 µM): 0.508; relative viability ([15]; first compound 0.002 µM): 0.337; relative viability ([15]; first compound 0.006325 µM): 0.259; relative viability ([15]; first compound 0.02 µM): 0.24; relative viability ([16]; first compound 0.0002 µM): 0.861; relative viability ([16]; first compound 0.000632 µM): 0.483; relative viability ([16]; first compound 0.002 µM): 0.23; relative viability ([16]; first compound 0.006325 µM): 0.192; relative viability ([16]; first compound 0.02 µM): 0.142; relative viability ([17]; first compound 0.0002 µM): 0.966; relative viability ([17]; first compound 0.000632 µM): 0.918; relative viability ([17]; first compound 0.002 µM): 0.635; relative viability ([17]; first compound 0.006325 µM): 0.223; relative viability ([17]; first compound 0.02 µM): 0.172; relative viability ([18]; first compound 0.0002 µM): 0.833; relative viability ([18]; first compound 0.000632 µM): 0.535; relative viability ([18]; first compound 0.002 µM): 0.503; relative viability ([18]; first compound 0.006325 µM): 0.382; relative viability ([18]; first compound 0.02 µM): 0.353; relative viability ([19]; first compound 0.0002 µM): 0.998; relative viability ([19]; first compound 0.000632 µM): 0.859; relative viability ([19]; first compound 0.002 µM): 0.506; relative viability ([19]; first compound 0.006325 µM): 0.221; relative viability ([19]; first compound 0.02 µM): 0.167; relative viability ([20]; first compound 0.0002 µM): 1.04; relative viability ([20]; first compound 0.000632 µM): 0.999; relative viability ([20]; first compound 0.002 µM): 0.671; relative viability ([20]; first compound 0.006325 µM): 0.304; relative viability ([20]; first compound 0.02 µM): 0.199; relative viability ([21]; first compound 0.0002 µM): 0.426; relative viability ([21]; first compound 0.000632 µM): 0.0953; relative viability ([21]; first compound 0.002 µM): 0.0204; relative viability ([21]; first compound 0.006325 µM): 0.0165; relative viability ([21]; first compound 0.02 µM): 0.0108
